Experimental data reported in PMC9413440, “An Iterative Approach Guides Discovery of the FabI Inhibitor Fabimycin, a Late-Stage Antibiotic Candidate with In Vivo Efficacy against Drug-Resistant Gram-Negative Infections” (ACS Central Science, 2022).
≈ marks a conversion by molar mass, not a printed value.

Experiments:
Type in all cases: cell-based
human red blood cells = experiment: Human red blood cell hemolysis; settings: 200 μM; 2 hours at 37 °C
Method: drug is tested in duplicate. Compounds were diluted from 10mM DMSO stocks to 5 µM in mouse or human plasma (BioreclamationIVT, Baltimore, MD). The dialysis plate (Rapid Equilibrium Dialysis (RED) device; Thermo Scientific, Waltham, MA) was prepared by adding pH 7.4 phosphate buffer to one chamber of the RED device and dosing solution to the other chamber. The plate was sealed with an adhesive tape and incubated at 37 °C while shaking for 4 hours. Equal volumes of post-dialysis samples were removed from both the plasma and the buffer chambers into separate microcentrifuge tubes, and equal volumes (100µL) of fresh phosphate buffer and plasma were added to the tubes, respectively. […] Percentage binding is determined using the following equation: Binding % = (Concentration of test compound in plasma at equilibrium (Cpe) – Concentration of test compound in buffer at equilibrium (Cb)) / Cpe x 100. […]
Next, 10 µL of washed erythrocyte suspension was added to each tube and sealed. […] Absorbance was measured at 540 nm. […]
from Charles River were used. […] No additional randomization was used to allocate the experimental groups; blinding was not performed for subsequent quantitation.
The MTD of a single dosage of a given compound was determined before evaluating the MTD of multiple dosages. […]
weeks (single dose). The single-dose MTDs were determined first. […]

[1] = tested on: Faecalibacterium prausnitzii ATCC 27768; experiment: MIC, commensal bacteria; settings: ATCC27768
Method: (§1) II. Materials and Methods for Biological Experiments
(§2) S. aureus ATCC 29213 and E. coli MG1655 were obtained from the American Type Culture Collection (ATCC). E. coli BW25113 and E. coli JW5503 were obtained from the Keio Collection. AR-bank strains were obtained from the Centers for Disease Control and Prevention and FDA Antibiotic Resistance Isolate Bank.
(§3) Antimicrobial susceptibility tests
(§4) Susceptibility testing was performed in biological triplicate, unless noted otherwise, using the micro-dilution broth method as outlined by the Clinical and Laboratory Standards Institute. Bacteria were cultured with cation-adjusted Mueller Hinton broth (Sigma Aldrich, catalogue number: 90922). […]
(§5) NH3: m/z 391.2 → 171.0. Fabimycin: m/z 405.3 → 145.3. Power analysis was not used to determine the number of replicates. Error bars represent the standard error of the mean of three biological replicates. All compounds evaluated in biological assays were ≥95% pure.

[2] = tested on: Streptococcus parasanguinis KLE 2375; experiment: MIC, commensal bacteria; settings: KLE2375
Method: as §1, §2, §3, §4, §5

[3] = tested on: Bifidobacterium longum ATCC BAA999; experiment: MIC, commensal bacteria; settings: ATCCBAA999
Method: as §1, §2, §3, §4, §5

[4] = tested on: Bacteroides cellulosilyticus KLE 2342; experiment: MIC, commensal bacteria; settings: KLE2342
Method: as §1, §2, §3, §4, §5

[5] = tested on: Blautia producta ATCC 27340; experiment: MIC, commensal bacteria; settings: ATCC27340
Method: as §1, §2, §3, §4, §5

[6] = tested on: Lactobacillus reuteri ATCC 23272; experiment: MIC, commensal bacteria; settings: Limosilactobacillus reuteri, ATCC23272
Method: as §1, §2, §3, §4, §5

[7] = tested on: Bacteroides vulgatus KLE 2303; experiment: MIC, commensal bacteria; settings: Phocaeicola vulgatus, KLE2303
Method: as §1, §2, §3, §4, §5

[8] = tested on: Enterococcus faecalis KLE 2341; experiment: MIC, commensal bacteria; settings: KLE2341
Method: as §1, §2, §3, §4, §5

Cc1c(CN(C)C(=O)/C=C/c2cnc3c(c2)CC[C@H](N)C(=O)N3)oc2ccccc12 [fabimycin]
lysis of human red blood cells (human red blood cells): nonhemolytic
MIC [1]: > 128 µg/mL
MIC [2]: 128 µg/mL (≈ 316 µM)
MIC [3]: > 128 µg/mL
MIC [4]: > 128 µg/mL
MIC [5]: > 128 µg/mL
MIC [6]: 64 µg/mL (≈ 158 µM)
MIC [7]: > 128 µg/mL
MIC [8]: > 128 µg/mL
